Measurements as given in patent US10640507B2, “PBD antibacterial agents” (KING'S COLLEGE LONDON, priority 2015, dated 2020).
Values after ≈ are worked out from the molar mass of the structure shown. Read-outs that look alike come from different tables or passages of the source.

How the values were obtained:
[1] = system: A. baumannii - AYE; type: cell-based; settings: drug at 4×MIC
Experimental: (§1) 1. Grow bacteria overnight.
(§2) 2. Subculture into an autoclaved conical flask containing 10 ml of TSB to an OD of 0.01 (˜1×10^7 Cfu/ml for KP-M6).
(§3) 4. Take aliquots (100 μl) at timepoints (0, 1, 2, 4, 6, 24 hours) and carry out a serial dilution in PBS (to remove drug and to dilute bacteria to countable numbers).
(§4) 5. Use the serial dilution to perform a Miles Misra—i.e. Add 3×10 μl spots of each dilution onto an agar plate. Incubate overnight and count colonies on spots in the morning.
(§5) 6. Control: Subculture bacteria alongside samples but with no antibiotic added. Take aliquots from this at every time point (0, 1, 2, 4, 6, 24 hours) and perform Miles Misra on these too (as detailed in points 4 and 5 above).
(§6) 7. After the first experiment, if the counts seen on Miles-Misra were zero, total viable counts were determined by spreading 200 μl in a streak down the centre of a TSB agar plate, waiting for the liquid to be absorbed and then spreading over the plate and checking for growth inhibition at the sight of the original streak.
(§7) 8. The compound is considered bactericidal if the inoculum was reduced >3 log10 CFU/ml and bacteriostatic if inoculum was reduced by 0-3 log10 CFU/ml.
(§8) Three measurements were taken for each compound at each time point. These measurements were averaged and the standard deviation was also calculated.

[2] = system: A. baumannii - NCTC13424; type: cell-based; settings: drug at 4×MIC
Experimental: as §1, §2, §3, §4, §5, §6, §7, §8

[3] = system: K. pneumonia - NCTC 13368; type: cell-based; settings: drug at 4×MIC
Experimental: as §1, §2, §3, §4, §5, §6, §7, §8

[4] = system: K. pneumonia - NCTC 13438; type: cell-based; settings: drug at 4×MIC
Experimental: as §1, §2, §3, §4, §5, §6, §7, §8

[5] = system: M6; experiment: Effect of efflux pump inhibitors (EPIs) on MIC; type: cell-based, K. pneumoniae; settings: for MIC: Klebsiella pneumoniae
Experimental: (§9) 1. Grow up cultures of bacterial strains to be tested overnight.
(§10) 2. Dilute down overnight cultures to concentration of 1×10^6 bacteria/ml (OD0.01) in Tryptic soy broth (TSB).
(§11) 3. Add 100 μl of TSB media to column 2-column 12 in 96 well plate (keeping column 1 clear).
(§12) 4. Make up compound to a concentration of 64 μg/ml in water.
(§13) 5. Add 100 μl of antibiotic solution to the 1st and 2nd columns.
(§14) 6. Using a multichannel pipette take 100 μl from the 2nd column wells and pipette into 3rd column wells and repeat down the 96 well plate (remember to include controls i.e. uninfected media and media with no antibiotic).
(§15) 7. To each well (except uninfected control row H) add 50 μl/well of EPI at 4× final concentration in TSB.
(§16) 9. In wells used to test the effect of the EPI carbonyl cyanide 3-chlorophenylhydrazone (CCCP) the CCCP is added at 10 μg/ml final concentration.
(§17) 10. In wells used to test the effect of the EPI phenylalanine-arginine β-naphthylamide (PABN) the PABN is added at 25 μg/ml final concentration.
(§18) 11. In wells used to test the effect of the PABN+Mg, the PABN is added at 25 μg/ml final concentration, with 1 mM MgSO4 in TSB.
(§19) 12. Wrap plate with parafilm to prevent evaporation.
(§20) 13. Leave at desired temperature (37° C. unless specified elsewhere) for 20 hours.
(§21) 14. Next day check plates for growth and measure optical density (i.e. absorbance) at a wavelength of 600 nm (OD600).
(§22) Compound KMR-14-33 was tested against a range of bacterial species using the above protocol. Compound PP-A148 was also tested against a more limited range of bacterial species using the above protocol. For KMR-14-33 measurements were carried out for the compound alone, for the compound plus CCCP, for the compound plus PABN and for the compound plus PABN and plus Mg. For PP-A148 measurements were carried out for the compound alone and for the compound plus PABN.

[6] = system: NCTC 13437; experiment: Effect of efflux pump inhibitors (EPIs) on MIC; type: cell-based, P. aeruginosa; settings: for MIC: Pseudomonas aeruginosa
Experimental: as §9, §10, §11, §12, §13, §14, §15, §16, §17, §18, §19, §20, §21, §22

[7] = system: PA01; experiment: Effect of efflux pump inhibitors (EPIs) on MIC; type: cell-based, P. aeruginosa; settings: for MIC: Pseudomonas aeruginosa
Experimental: as §9, §10, §11, §12, §13, §14, §15, §16, §17, §18, §19, §20, §21, §22

SMILES: COc1cc2c(cc1OCCCC(=O)Nc1cc(C(=O)Nc3ccc4sc(C(=O)N(C)C)cc4c3)n(C)c1)N=C[C@@H]1CCCN1C2=O [KMR-14-33, (S)—N-(2-(dimethylcarbamoyl)benzo[b]thiophen-5-yl)-4-(4-((7-methoxy-5-oxo-2,3,5,11a-tetrahydro-1H-benzo[e]pyrrolo[1,2-a][1,4]-diazepin-8-yl)oxy)butanamido)-1-methyl-1H-pyrrole-2-carboxamide]
- Average (Log CFU/ml) ([1]; time-point 1 hours): 0 CFU/ml
- n = 1 (Log CFU/ml) ([1]; time-point 1 hours): 0 CFU/ml
- n = 2 (Log CFU/ml) ([1]; time-point 1 hours): 0 CFU/ml
- n = 3 (Log CFU/ml) ([1]; time-point 1 hours): 0 CFU/ml
- Average (Log CFU/ml) ([1]; time-point 2 hours): 0 CFU/ml
- n = 1 (Log CFU/ml) ([1]; time-point 2 hours): 0 CFU/ml
- n = 2 (Log CFU/ml) ([1]; time-point 2 hours): 0 CFU/ml
- n = 3 (Log CFU/ml) ([1]; time-point 2 hours): 0 CFU/ml
- Average (Log CFU/ml) ([1]; time-point 4 hours): 29 CFU/ml
- n = 1 (Log CFU/ml) ([1]; time-point 4 hours): 0 CFU/ml
- n = 2 (Log CFU/ml) ([1]; time-point 4 hours): 0 CFU/ml
- n = 3 (Log CFU/ml) ([1]; time-point 4 hours): 85 CFU/ml
- Average (Log CFU/ml) ([1]; time-point 6 hours): 1334 CFU/ml
- n = 1 (Log CFU/ml) ([1]; time-point 6 hours): 0 CFU/ml
- n = 2 (Log CFU/ml) ([1]; time-point 6 hours): 0 CFU/ml
- n = 3 (Log CFU/ml) ([1]; time-point 6 hours): 4000 CFU/ml
- Average (Log CFU/ml) ([1]; time-point 24 hours): 6667.333 CFU/ml
- n = 1 (Log CFU/ml) ([1]; time-point 24 hours): 0 CFU/ml
- n = 2 (Log CFU/ml) ([1]; time-point 24 hours): 20000 CFU/ml
- n = 3 (Log CFU/ml) ([1]; time-point 24 hours): 0 CFU/ml
- Average (Log CFU/ml) ([2]; time-point 1 hours): 1923.667 Log CFU/ml
- n = 1 (Log CFU/ml) ([2]; time-point 1 hours): 0 Log CFU/ml
- n = 2 (CFU/ml) ([2]; time-point 1 hours): 940 CFU/ml
- n = 3 (CFU/mL) ([2]; time-point 1 hours): 4830 CFU/mL
- Average (Log CFU/ml) ([2]; time-point 2 hours): 0 Log CFU/ml
- n = 1 (Log CFU/ml) ([2]; time-point 2 hours): 0 Log CFU/ml
- n = 2 (Log CFU/ml) ([2]; time-point 2 hours): 0 Log CFU/ml
- n = 3 (Log CFU/ml) ([2]; time-point 2 hours): 0 Log CFU/ml
- Average (Log CFU/ml) ([2]; time-point 4 hours): 0 Log CFU/ml
- n = 1 (Log CFU/ml) ([2]; time-point 4 hours): 0 Log CFU/ml
- n = 2 (Log CFU/ml) ([2]; time-point 4 hours): 0 Log CFU/ml
- n = 3 (Log CFU/ml) ([2]; time-point 4 hours): 0 Log CFU/ml
- Average (Log CFU/ml) ([2]; time-point 6 hours): 0 Log CFU/ml
- n = 1 (Log CFU/ml) ([2]; time-point 6 hours): 0 Log CFU/ml
- n = 2 (Log CFU/ml) ([2]; time-point 6 hours): 0 Log CFU/ml
- n = 3 (Log CFU/ml) ([2]; time-point 6 hours): 0 Log CFU/ml
- Average (Log CFU/ml) ([2]; time-point 24 hours): 2084 Log CFU/ml
- n = 1 (CFU/mL) ([2]; time-point 24 hours): 6250 CFU/mL
- n = 2 (Log CFU/ml) ([2]; time-point 24 hours): 0 Log CFU/ml
- n = 3 (Log CFU/ml) ([2]; time-point 24 hours): 0 Log CFU/ml
- Average (Log CFU/ml) ([3]; time-point 1 hours): 18850000 CFU/ml
- n = 2 (Log CFU/ml) ([3]; time-point 1 hours): 36000000 CFU/ml
- viable count ([3]; time-point 1 hours): 1.7e+06 CFU/mL
- Average (CFU/ml) ([3]; time-point 2 hours): 505000 CFU/ml
- n = 2 (Log CFU/ml) ([3]; time-point 2 hours): 900000 CFU/ml
- viable count ([3]; time-point 2 hours): 110000 CFU/mL
- Average (CFU/ml) ([3]; time-point 4 hours): 0 CFU/ml
- n = 2 (CFU/ml) ([3]; time-point 4 hours): 0 CFU/ml
- viable count ([3]; time-point 4 hours): 0 CFU/mL
- Average (CFU/ml) ([3]; time-point 6 hours): 0 CFU/ml
- n = 2 (CFU/ml) ([3]; time-point 6 hours): 0 CFU/ml
- viable count ([3]; time-point 6 hours): 0 CFU/mL
- Average (CFU/ml) ([3]; time-point 24 hours): 0 CFU/ml
- n = 2 (CFU/ml) ([3]; time-point 24 hours): 0 CFU/ml
- viable count ([3]; time-point 24 hours): 0 CFU/mL
- Average (Log CFU/ml) ([4]; time-point 1 hours): 1000000 CFU/ml
- n = 1 (Log CFU/ml) ([4]; time-point 1 hours): 1000000 CFU/ml
- n = 2 (Log CFU/ml) ([4]; time-point 1 hours): 2000000 CFU/ml
- n = 3 (Log CFU/ml) ([4]; time-point 1 hours): 1 CFU/ml
- Average (Log CFU/ml) ([4]; time-point 2 hours): 34 CFU/ml
- n = 1 (Log CFU/ml) ([4]; time-point 2 hours): 0 CFU/ml
- n = 2 (Log CFU/ml) ([4]; time-point 2 hours): 100 CFU/ml
- n = 3 (Log CFU/ml) ([4]; time-point 2 hours): 0 CFU/ml
- Average (Log CFU/ml) ([4]; time-point 4 hours): 0 CFU/ml
- n = 1 (Log CFU/ml) ([4]; time-point 4 hours): 0 CFU/ml
- n = 2 (Log CFU/ml) ([4]; time-point 4 hours): 0 CFU/ml
- n = 3 (Log CFU/ml) ([4]; time-point 4 hours): 0 CFU/ml
- Average (Log CFU/ml) ([4]; time-point 6 hours): 0 CFU/ml
- n = 1 (Log CFU/ml) ([4]; time-point 6 hours): 0 CFU/ml
- n = 2 (Log CFU/ml) ([4]; time-point 6 hours): 0 CFU/ml
- n = 3 (Log CFU/ml) ([4]; time-point 6 hours): 0 CFU/ml
- Average (Log CFU/ml) ([4]; time-point 24 hours): 0 CFU/ml
- n = 1 (Log CFU/ml) ([4]; time-point 24 hours): 0 CFU/ml
- n = 2 (Log CFU/ml) ([4]; time-point 24 hours): 0 CFU/ml
- n = 3 (Log CFU/ml) ([4]; time-point 24 hours): 0 CFU/ml
- MIC ([5]; read-out: +CCCP MIC): 0.125 µg/mL (≈ 0.19 µM)
- MIC ([5]; read-out: Control with no EPI MIC): 1 µg/mL (≈ 1.52 µM)
- +PABN MIC ([5]; M6, PABN at 25 μg/ml): 0.125 µg/mL
- +PABN + Mg MIC ([5]; M6, PABN at 25 μg/ml with 1 mM MgSO4): 0.25 µg/mL
- +PABN MIC ([6]; NCTC 13437, PABN at 25 μg/ml): 16 µg/mL
- +PABN + Mg MIC ([6]; NCTC 13437, PABN at 25 μg/ml with 1 mM MgSO4): 16 µg/mL
- MIC ([6]; NCTC13437, read-out: +CCCP MIC): > 32 µg/mL
- MIC ([6]; NCTC13437, read-out: Control with no EPI MIC): > 32 µg/mL
- +PABN MIC ([7]; PABN at 25 μg/ml): 4 µg/mL
- +PABN + Mg MIC ([7]; PABN at 25 μg/ml with 1 mM MgSO4): 2 µg/mL
- MIC ([7]; CCCP at 10 μg/ml, read-out: +CCCP MIC): > 32 µg/mL
- MIC ([7]; no EPI, read-out: Control with no EPI MIC): > 32 µg/mL
